# B1: 2D5F7: IgG2b mAb of hybridoma 2D5F7, specific for Fba peptide; VH SEQ ID NO: 68, VL SEQ ID NO: 70 (antibody, V domains shown)
# VH: MERHWIFLFLLSVTAGVHSQVQLQQSAAELARPGASVKMSCKASGYTFSSYTMHWVKQRPGQGLEWIGYINPSSGYTDYNQKFKDKTTLTADKSSSTAYMQLSSLTSEDSAVYYCARLYDNYDYYAMDYWGQGTSVTVSS
# VL: MDSQAQVLILLLLWVSGTCGDIVMSQSPSSLAVSAGEKVTMSCKSSQSLLNSRIRKNYLAWYQQKPGQSPKLLIYWASTRESGVPDRFTGSGSGTDFTLTISSVQADDLAVYYCKQSYNLLTFGAGTKLELK
# Test system: C. albicans 3153A
# Assay: Passive transfer of mAbs or mAb cocktails i.p. before lethal i.v. challenge, mouse model of human disseminated candidiasis
# Format: in vivo, Candida albicans
# Details: Table 14; mAb removed by absorption with Candida cells before transfer
# Protocol: Passive transfer of MAbs by intraperitoneal (i.p.) route. The preventive effect of peptide-specific mAbs listed in Table 3 and Table 4 in naïve mice was examined by passive transfer experiments. […] For testing, mice received 0.5 ml of each mAb or 1 ml of two mAbs in combination (0.5 ml of each) intraperitoneally. […] The negative control materials tested in mice were single mAb or DPBS. Control mice received 0.5 ml of the DPBS diluents or single mAb treatment. For each condition, 6- to 8-week-old female BALB/c mice (NCI) were given 0.5 ml of test mAb, or 1 ml two mAb cocktails or control materials intraperitoneally, followed 4 h later by 0.1 ml intravenously of defined lethal dose of yeast cells per milliliter of DPBS. Mice were divided into groups with five mice each and three independent experiments were carried out. In some experiments, mice were given the same dose of mAbs or control materials on every other day post-challenge for two weeks, as compared to the protective efficacy of mAb in combinations. All mice were sacrificed on day 50. For animal groups that were challenged non-albicans candida species, determined optimal challenge doses were applied for each candida strain.
# The hybridoma clones that produce the universal peptide specific mAbs listed above were generated from mice vaccinated with peptide-pulsed dendritic cell (DC) preparation as described previously (6). The isotype of mAb was determined with a Mouse Monoclonal Antibody Isotyping Kit (Pierce, USA). […] In detail, BALB/c mice were given an i.p dose of each mAb four hours before hematogenous challenged with a lethal dose of C. albicans3153A cells. […] Importantly, passive protection was prevented by removal of the mAbs by absorption with Candida cells before transfer, which provided strong additional evidence for the protection being due to the mAb.
# The three cell wall proteins were selected because of expression during human candidiasis and cell wall association, and included fructose-bisphosphate aldolase (Fba); methyltetrahydropteroyltriglutamate-homocysteine methyltransferase (Met6); hyphal wall protein-1 (Hwp1). The hybridoma clones listed at Table 5, which produce the peptide specific mAbs, were generated from mice vaccinated with peptide-pulsed dendritic cell (DC) preparation as described previously (6). The isotype of mAb was determined with a Mouse Monoclonal Antibody Isotyping Kit (Pierce, USA). […] Importantly, passive protection was prevented by removal of the mAbs by absorption with Candida cells before transfer, which provided strong additional evidence for the protection being due to the mAb).
# The preventive effect of each universal peptide-specific mAb was examined by passive transfer experiments. […] For testing, 5 mice of each tested group received 0.5 ml of each mAb intraperitoneally. The negative control materials tested in mice were mAbs absorbed with C. albicans yeast cells (3153A) and DPBS. Control mice received 0.5 ml of the DPBS diluents or adsorbed mAb solution. For each condition, 6- to 8-week-old female BALB/c mice (NCI) were given 0.5 ml of test mAb, or control materials intraperitoneally, followed 4 h later by 0.1 ml intravenously of a suspension containing lethal dose of Candida cells per milliliter of DPBS. Mice were divided into groups with five mice each and three independent experiments were carried out. We have developed neutropenic murine models of disseminated infection by C. glabrata, C. tropicalis and C. parapsilosis. To induce neutropenia, naïve mice received a 200 mg/kg dose of cyclophosphamide (CY) by i.p. on day −3. Prolonged neutropenia were maintained for 30-50 days by giving each animal a 150 mg/kg dose of CY by i.p. every 10 days after infection.
row,Molecule,Protection of adsorbed mAb
1,B1,None

# Same assay, conditions: Table 14; single mAb, C. albicans
Molecule,Protection,Protection (grade word)
B1,(90-100%),High

# Test system: C. albicans
# Assay: Universal double chimeric peptide vaccines, protection against candidiasis in mouse model
# Format: in vivo, Candida albicans
# Details: Table 11; double peptide vaccine formula feasible for human use
# From the text: Each chimeric peptide conjugate comprises two peptide epitopes.
Molecule,Protection against Candidiasis in mouse model,Protection against Candidiasis in mouse model (grade word)
PADRE-GPV-M1-GPSL-GPV-P1: double peptide vaccine 1; amidation (C-terminus) and acetylation (N-terminus) (Ac-AKFVAAWTLKAAACFWVNPDCGLKTRGPSLCAILGGSKVSDKI-NH2; cysteine pairing not given here),60-90%,High
PADRE-GPV-M2-KK-GPV-P1: double peptide vaccine 10; amidation (C-terminus) and acetylation (N-terminus) (Ac-AKFVAAWTLKAAACTTTIGSFPQTKDIRKKCAILGGSKVSDKI-NH2; cysteine pairing not given here),20-40%,Low
RGD-GPV-P3-KK-GPV-M2: double peptide vaccine 4; amidation (C-terminus) and acetylation (N-terminus) (Ac-RGDCIVIIGGGDTATVAKKKKCTTTIGSFPQTKDIR-NH2; cysteine pairing not given here),70-90%,High
RGD-PADRE-GPV-M2-KK-GPV-P3: double peptide vaccine 11; amidation (C-terminus) and acetylation (N-terminus) (Ac-RGDAKFVAAWTLKAAACTTTIGSFPQTKDIRKKCIVIIGGGDTATVAKK-NH2; cysteine pairing not given here),80-100%,High
RGD-TT830-844-KK-GPV-P3-KK-GPV-M1: double peptide vaccine 8; amidation (C-terminus) and acetylation (N-terminus) (Ac-RGDQYIKANSKFIGITEKKCIVIIGGGDTATVAKKKKCFWVNPDCGLKTR-NH2; cysteine pairing not given here),80-100%,High
RGD-TT947-967-KK-GPV-P3-KK-GPV-M1: double peptide vaccine 9; amidation (C-terminus) and acetylation (N-terminus) (Ac-RGDFNNFTVSFWLRVPKVSASHLEKKCIVIIGGGDTATVAKKKKCFWVNPDCGLKTR-NH2; cysteine pairing not given here),20-40%,Low
TT830-844-GPSL-GPV-M1-GPSL-GPV-P1: double peptide vaccine 2; amidation (C-terminus) and acetylation (N-terminus) (Ac-QYIKANSKFIGITEGPSLCFWVNPDCGLKTRGPSLCAILGGSKVSDKI-NH2; cysteine pairing not given here),40-60%,medium
TT830-844-KK-GPV-P3-KK-GPV-M2: double peptide vaccine 6; amidation (C-terminus) and acetylation (N-terminus) (Ac-QYIKANSKFIGITEKKCIVIIGGGDTATVAKKKKCTTTIGSFPQTKDIR-NH2; cysteine pairing not given here),40-60%,medium
TT947-967-GPSL-GPV-M1-GPSL-GPV-P1: double peptide vaccine 3; amidation (C-terminus) and acetylation (N-terminus) (Ac-FNNFTVSFWLRVPKVSASHLEGPSLCFWVNPDCGLKTRGPSLCAILGGSKVSDKI-NH2; cysteine pairing not given here),40-60%,medium
TT947-967-KK-GPV-P3-KK-GPV-M1: double peptide vaccine 7; amidation (C-terminus) and acetylation (N-terminus) (Ac-FNNFTVSFWLRVPKVSASHLEKKCIVIIGGGDTATVAKKKKCFWVNPDCGLKTR-NH2; cysteine pairing not given here),70-90%,High

# From US11707511B2, “Vaccine compositions and methods of using the same” (The Board of Supervisors of Louisiana State University and …, priority 2017, dated 2023)
